Results published in patent US5122448A, “Assay of anti-Epstein-Barr virus nuclear antigen antibodies with synthetic polypeptides” (Scripps Clinic and Research Foundation, priority 1990, dated 1992).
Residues, ends and D or L forms follow the SMILES beside them.

Columns and labels:
anti-EBNA antibodies = assay: ELISA with polypeptide as solid phase antigen, anti-polypeptide activity of sera (OD405); format: binding, human; settings: for Number of anti-EBNA positive sera positive against (bound to) polypeptide: 91 ACIF anti-EBNA positive sera, 1:20 dilution; for Titer of PSS patients versus normals: Progressive Systemic Schlerosis patients; for Reaction of VCA+ sera with polypeptide: clinically normal VCA+ individuals, two dilutions; for Reaction of VCA- sera with polypeptide: panel of 19 VCA- sera; for OD405 × 10^3 obtained with Patient Antibodies to peptide: serum 1:20
Experimental: Briefly, microtiter wells (Costar, #3590, Cambridge, MA) were typically coated with individual polypeptides as antigens by adding 100 microliters (ul) of BBS [10 millimoler (mM) sodium borate (pH 8.3), 150 mM NaCl] containing polypeptide at a concentration of 10 micrograms per milliliter (ug/ml). Contact between the wells and antigen-containing solution was maintained for a predetermined time, typically 15 minutes, and at 20 degrees C., to form an antigen-coated solid phase. The solid and liquid phases were separated and the wells were washed three times with BBS.
Non-specific binding sites were blocked by admixing 200 microliters of 1% bovine serum albumin (BSA) in each well to form another solid/liquid phase admixture, and maintaining that solid/liquid phase admixture for 30 minutes, at 20 degrees C. The phases were separated and excess, unbound BSA was removed by washing three times with BBS.
The antibodies in human sera that immunoreacted with an adsored polypeptide were detected using an indicating means comprising alkaline phosphatase-conjugated goat anti-human Ig antibody (Tago, Burlington, Calif.). The antibodies in rabbit sera that immunoreacted with an adsorbed polypeptide were detected using an indicating means comprising alkaline phosphatase-conjugated goat anti-rabbit Ig antibody (Kirkegard & Perry Laboratories, Inc., Gaithersburg, MD). In either instance, 100 microliters of the indicating antibody diluted 1:300 in BBS were added per well to form a further solid/liquid phase composition. This solid-liquid phase composition was maintained for a predetermined time, one hour, for the formation of a reaction product between the human antibodies bound to the solid phase and the indicating means, and at 20 degrees C. The phases were separated, and the solid phase was washed 3 times with BBS.
Alkaline phosphatase-conjugated antibody bound to polypeptide specific antibody was detected by spectrophotometrically measuring the enzymatic hydrolysis of p-nitrophenyl phosphate to p-nitrophenol. Briefly, 100 microliters of p-nitrophenyl phosphate [1 milligram per milliliter in 2 mM MgCl 2, (pH 9.8), 50 mM sodium carbonate] were added to each well. The enzymatic reaction was allowed to proceed 1 hour and then the optical density at 405 nm was determined in a [sequence] spectrophotometer available from Flow Laboratories, Inglewood, Calif.

[1] = test system: rabbit anti-polypeptide antibody to polypeptide P62; assay: Competition ELISA with rabbit anti-polypeptide P62 antibody on solid phase P62; format: binding; settings: antibody first incubated with competing polypeptide
Experimental: Anti-peptide antibody binding and inhibition studies were carried out by an enzyme-linked immunosorbent assay (ELISA) as described below.
Contact between the wells and antigen-containing solution was maintained for a predetermined time, typically 15 minutes, and at 20 degrees C., to form an antigen-coated solid phase. The solid and liquid phases were separated and the wells were washed three times with BBS.
Rabbit and human sera (body sample aliquots) were assayed for anti-polypeptide activity by adding 100 microliters of a serum diluted 1:20 in BBS per well to form a solid/liquid phase composition. Contact between the diluted sera and the antigen-coated solid phase was maintained for a predetermined time such as 1 hour, and at 20 degrees C., for an immunoreactant to form. The solid and liquid phases were separated, and the solid phase; i.e., antigen-coated, immunoreactant-containing wells, was then washed three times with BBS.

[2] = Circular dichroism spectroscopy; format: physicochemical; settings: 1 mg/ml in phosphate buffered saline
Experimental: The conformational properties of the polypeptides were investigated to elucidate any secondary structure that might be necessary for polypeptide immunoreaction with human anti-EBNA antibodies. The polypeptides were dissolved at a concentration of 1 mg/ml in phosphate-buffered saline (PBS). Spectra were taken using 1 ml samples in a Cary 61 spectropolarimeter (Cary Instruments, Applied Physics Corp., Monrovia, Calif.) interfaced and automated with a Digital Equipment Corporation 11/02 computer (Digital Equipment Corporation, Maynard, Mass.).

SMILES: C[C@H](NC(=O)CNC(=O)CNC(=O)[C@H](C)NC(=O)CNC(=O)[C@H](C)NC(=O)CNC(=O)[C@H](C)NC(=O)CNC(=O)[C@@H](NC(=O)CNC(=O)CNC(=O)[C@H](Cc1c[nH]cn1)NC(=O)[C@@H](NC(=O)CNC(=O)[C@@H](N)CCCCN)[C@@H](C)O)[C@@H](C)O)C(=O)NCC(=O)N[C@@H](C)C(=O)NCC(=O)O [Polypeptide P27, H--Lys--Gly--Thr--His--Gly--Gly--Thr--Gly--Ala--Gly--Ala--Gly--Ala--Gly--Gly--Ala--Gly--Ala--Gly--OH] (H-KGTHGGTGAGAGAGGAGAG-OH)
- Number of anti-EBNA positive sera positive against (bound to) polypeptide (anti-EBNA antibodies): 91
- Titer of PSS patients versus normals (anti-EBNA antibodies): relatively higher average titer
- Reaction of VCA+ sera with polypeptide (anti-EBNA antibodies): all of the VCA^+ individuals were positive
- Reaction of VCA- sera with polypeptide (anti-EBNA antibodies): None of the VCA^- sera were found to react positively
- OD405 × 10^3 obtained with Patient Antibodies to peptide (anti-EBNA antibodies; MV post-mononucleosis): 107 OD405 × 10^3
- OD405 × 10^3 obtained with Patient Antibodies to peptide (anti-EBNA antibodies; MV pre-mononucleosis): 15 OD405 × 10^3
- OD405 × 10^3 obtained with Patient Antibodies to peptide (anti-EBNA antibodies; SB post-mononucleosis): 33 OD405 × 10^3
- OD405 × 10^3 obtained with Patient Antibodies to peptide (anti-EBNA antibodies; SB pre-mononucleosis): 11 OD405 × 10^3
- OD405 × 10^3 obtained with Patient Antibodies to peptide (anti-EBNA antibodies; VCA+ Normal 1): 155 OD405 × 10^3
- OD405 × 10^3 obtained with Patient Antibodies to peptide (anti-EBNA antibodies; VCA+ Normal 2): 516 OD405 × 10^3
- OD405 × 10^3 obtained with Patient Antibodies to peptide (anti-EBNA antibodies; VCA- Normals (n = 27), average ± one standard deviation): 67 ± 23 OD405 × 10^3
- Inhibition of binding of anti-polypeptide P62 to polypeptide P62 in the solid phase [1]: 36%
- Conformation by circular dichroism spectrum [2]: very similar spectra

SMILES: C[C@H](NC(=O)CN)C(=O)NCC(=O)NCC(=O)N[C@@H](C)C(=O)NCC(=O)N[C@@H](C)C(=O)NCC(=O)NCC(=O)NCC(=O)N[C@@H](C)C(=O)NCC(=O)NCC(=O)N[C@@H](C)C(=O)NCC(=O)NCC(=O)O [Polypeptide F15, H--Gly--Ala--Gly--Gly--Ala--Gly--Ala--Gly--Gly--Gly--Ala--Gly--Gly--Ala--Gly--Gly--OH] (H-GAGGAGAGGGAGGAGG-OH)
- Number of anti-EBNA positive sera positive against (bound to) polypeptide (anti-EBNA antibodies): 91
- Titer of PSS patients versus normals (anti-EBNA antibodies): relatively higher average titer
- Reaction of VCA+ sera with polypeptide (anti-EBNA antibodies): all of the VCA^+ individuals were positive
- Reaction of VCA- sera with polypeptide (anti-EBNA antibodies): None of the VCA^- sera were found to react positively
- Conformation by circular dichroism spectrum [2]: very similar spectra

SMILES: CSCC[C@H](NC(=O)[C@@H]1CCCN1C(=O)[C@H](CCCNC(=N)N)NC(=O)[C@H](CCCCN)NC(=O)[C@H](CCC(=O)O)NC(=O)CNC(=O)[C@H](CCCNC(=N)N)NC(=O)CNC(=O)[C@H](CCCNC(=N)N)NC(=O)CNC(=O)[C@H](CCCNC(=N)N)NC(=O)CNC(=O)[C@H](CCCNC(=N)N)NC(=O)[C@H](C)NC(=O)[C@@H](N)CCCNC(=N)N)C(=O)O [Polypeptide P89, H--Arg--Ala--Arg--Gly--Arg--Gly--Arg--Gly--Arg--Gly--Glu--Lys--Arg--Pro--Met--OH] (H-RARGRGRGRGEKRPM-OH)
- OD405 × 10^3 obtained with Patient Antibodies to peptide (anti-EBNA antibodies; MV post-mononucleosis): 25 OD405 × 10^3
- OD405 × 10^3 obtained with Patient Antibodies to peptide (anti-EBNA antibodies; MV pre-mononucleosis): 29 OD405 × 10^3
- OD405 × 10^3 obtained with Patient Antibodies to peptide (anti-EBNA antibodies; SB post-mononucleosis): 23 OD405 × 10^3
- OD405 × 10^3 obtained with Patient Antibodies to peptide (anti-EBNA antibodies; SB pre-mononucleosis): 9 OD405 × 10^3
- OD405 × 10^3 obtained with Patient Antibodies to peptide (anti-EBNA antibodies; VCA+ Normal 1): 23 OD405 × 10^3
- OD405 × 10^3 obtained with Patient Antibodies to peptide (anti-EBNA antibodies; VCA+ Normal 2): 16 OD405 × 10^3

SMILES: C[C@H](NC(=O)CNC(=O)CNC(=O)[C@H](C)NC(=O)CNC(=O)[C@H](C)NC(=O)CNC(=O)CNC(=O)[C@H](C)NC(=O)CNC(=O)[C@H](C)NC(=O)CNC(=O)CNC(=O)[C@H](C)NC(=O)CNC(=O)[C@H](C)NC(=O)CNC(=O)CN)C(=O)NCC(=O)N[C@@H](C)C(=O)NCC(=O)O [Polypeptide F16, H--Gly--Gly--Ala--Gly--Ala--Gly--Gly--Ala--Gly--Ala--Gly--Gly--Ala--Gly--Ala--Gly--Gly--Ala--Gly--Ala--Gly--OH] (H-GGAGAGGAGAGGAGAGGAGAG-OH)
- Number of anti-EBNA positive sera positive against (bound to) polypeptide (anti-EBNA antibodies): 91
- Titer of PSS patients versus normals (anti-EBNA antibodies): relatively higher average titer
- Reaction of VCA+ sera with polypeptide (anti-EBNA antibodies): all of the VCA^+ individuals were positive
- Reaction of VCA- sera with polypeptide (anti-EBNA antibodies): None of the VCA^- sera were found to react positively

SMILES: CC[C@H](C)[C@H](N)C(=O)N[C@@H](CCSC)C(=O)N[C@@H](CO)C(=O)N[C@@H](CC(=O)O)C(=O)N[C@@H](CCC(=O)O)C(=O)NCC(=O)N1CCC[C@H]1C(=O)NCC(=O)N[C@H](C(=O)NCC(=O)N[C@@H](CC(N)=O)C(=O)NCC(=O)N[C@@H](CC(C)C)C(=O)NCC(=O)N[C@@H](CCC(=O)O)C(=O)O)[C@@H](C)O [Polypeptide F12, H--Ile--Met--Ser--Asp--Glu--Gly--Pro--Gly--Thr--Gly--Asn--Gly--Leu--Gly--Glu--OH] (H-IMSDEGPGTGNGLGE-OH)
- Reaction of VCA+ sera with polypeptide (anti-EBNA antibodies): all of the VCA^+ individuals were positive
- Reaction of VCA- sera with polypeptide (anti-EBNA antibodies): None of the VCA^- sera were found to react positively
- Conformation by circular dichroism spectrum [2]: partial assumption of such conformation

SMILES: C[C@H](NC(=O)CNC(=O)CNC(=O)CNC(=O)[C@H](C)NC(=O)CNC(=O)[C@H](C)NC(=O)CNC(=O)CNC(=O)[C@H](C)NC(=O)CNC(=O)CNC(=O)[C@H](C)NC(=O)CNC(=O)CN)C(=O)NCC(=O)O [Polypeptide F14, H--Gly--Gly--Ala--Gly--Gly--Ala--Gly--Gly--Ala--Gly--Ala--Gly--Gly--Gly--Ala--Gly--OH] (H-GGAGGAGGAGAGGGAG-OH)
- Number of anti-EBNA positive sera positive against (bound to) polypeptide (anti-EBNA antibodies): 91
- Titer of PSS patients versus normals (anti-EBNA antibodies): relatively higher average titer
- Reaction of VCA+ sera with polypeptide (anti-EBNA antibodies): all of the VCA^+ individuals were positive
- Reaction of VCA- sera with polypeptide (anti-EBNA antibodies): None of the VCA^- sera were found to react positively
- Conformation by circular dichroism spectrum [2]: very similar spectra

SMILES: C[C@H](NC(=O)CNC(=O)[C@@H]1CCCN1)C(=O)N1CCC[C@H]1C(=O)NCC(=O)NCC(=O)N[C@@H](CO)C(=O)NCC(=O)N[C@@H](CO)C(=O)NCC(=O)N1CCC[C@H]1C(=O)O [Polypeptide F13, H--Pro--Gly--Ala--Pro--Gly--Gly--Ser--Gly--Ser--Gly--Pro--OH] (H-PGAPGGSGSGP-OH)
- Reaction of VCA+ sera with polypeptide (anti-EBNA antibodies): all of the VCA^+ individuals were positive
- Reaction of VCA- sera with polypeptide (anti-EBNA antibodies): None of the VCA^- sera were found to react positively
- Conformation by circular dichroism spectrum [2]: random conformation
